# Test results as given in patent US12544375B2, “Small molecule therapeutic for parkinson's disease paired with a biomarker of therapeutic activity” (The Board of Trustees of the Leland Stanford Junior …, priority 2019, dated 2026).
# Key:
# Mitofusin (Marf) = assay: Flies fed compound, Mitofusin (Marf) Western blot; format: in vivo, fruit flies; conditions: wild-type flies fed 250 μM for 7 days
# Protocol: FIG. 2A-FIG. 2F. Miro1 Reducer Eliminates the Miro1 Defect in PD Fibroblasts. (FIG. 2A) Chemical properties of Miro1 Reducer. (FIG. 2B) Wild-type flies (w^1118) were fed with DMSO alone (0 μM Miro1 Reducer) or Miro1 Reducer in DMSO at 250 μM for 7 days, and lysed and blotted as indicated. The band intensities are normalized to those of Tubulin from the same blots. n=4. (FIG. 2C-FIG. 2E) Fibroblasts were treated, lysed, and blotted as indicated. (FIG. 2C) Band intensities are normalized to those of GAPDH from the same blots and compared to “Healthy-1, no treatment” except otherwise indicated. n=4. (FIG. 2D) Band intensities are normalized to those of ATP5β from the same blots and expressed as a percentage of the mean of “0 μM Miro1 Reducer with CCCP”. Mean±S.E.M is shown. n=3. (FIG. 2E) Band intensities are normalized to those of GAPDH from the same blots and compared to “Healthy-1, no CCCP, no MG132” except otherwise indicated. n=4. […] The Miro1 intensity is normalized to that of mito-dsRed from the same cell and quantified across 37-62 cells from 5 fields each transfection, 3 independent transfections. […]
# We assessed the binding ability of 6,835,320 commercialized small molecules to one of the two atypical Rho GTPase domains of Miro1 (amino acids 411-592) (FIG. 6C) by a customized virtual screen using the artificial intelligence (AI) technology. […]
# Myc-Miro1-7A = biological target: T1, Myc-Miro1-7A (Homo sapiens, UniProt Q8IXI2, D530A/K427A/K454A/K528A/N428A/Q446A/S432A); assay: Drug-resistant mutant Myc-Miro1-7A expressed in fibroblasts, immunostaining; format: cell-based; conditions: expressed in PD-2 fibroblasts, CCCP treatment
# T1 construct: expressed in transfected cells; host or cells: human skin fibroblasts Healthy-1 and PD-2 (Lipofectamine 2000)
# Protocol: FIG. 2A-FIG. 2F. Miro1 Reducer Eliminates the Miro1 Defect in PD Fibroblasts. (FIG. 2A) Chemical properties of Miro1 Reducer. (FIG. 2B) Wild-type flies (w^1118) were fed with DMSO alone (0 μM Miro1 Reducer) or Miro1 Reducer in DMSO at 250 μM for 7 days, and lysed and blotted as indicated. The band intensities are normalized to those of Tubulin from the same blots. n=4. (FIG. 2C-FIG. 2E) Fibroblasts were treated, lysed, and blotted as indicated. (FIG. 2C) Band intensities are normalized to those of GAPDH from the same blots and compared to “Healthy-1, no treatment” except otherwise indicated. n=4. (FIG. 2D) Band intensities are normalized to those of ATP5β from the same blots and expressed as a percentage of the mean of “0 μM Miro1 Reducer with CCCP”. Mean±S.E.M is shown. n=3. (FIG. 2E) Band intensities are normalized to those of GAPDH from the same blots and compared to “Healthy-1, no CCCP, no MG132” except otherwise indicated. n=4. (FIG. 2F) Healthy-1 and PD-2 fibroblasts were transfected as indicated, and immunostained with anti-Myc (Miro1, green) and stained with Dapi (blue). The Miro1 intensity is normalized to that of mito-dsRed from the same cell and quantified across 37-62 cells from 5 fields each transfection, 3 independent transfections. Scale bars: 50 μm. For (FIG. 2C-FIG. 2F), both CCCP and Miro1 Reducer were dissolved in DMSO. […]
# T1 sequence (Q8IXI2 whole entry K427A/N428A/S432A/Q446A/K454A/K528A/D530A): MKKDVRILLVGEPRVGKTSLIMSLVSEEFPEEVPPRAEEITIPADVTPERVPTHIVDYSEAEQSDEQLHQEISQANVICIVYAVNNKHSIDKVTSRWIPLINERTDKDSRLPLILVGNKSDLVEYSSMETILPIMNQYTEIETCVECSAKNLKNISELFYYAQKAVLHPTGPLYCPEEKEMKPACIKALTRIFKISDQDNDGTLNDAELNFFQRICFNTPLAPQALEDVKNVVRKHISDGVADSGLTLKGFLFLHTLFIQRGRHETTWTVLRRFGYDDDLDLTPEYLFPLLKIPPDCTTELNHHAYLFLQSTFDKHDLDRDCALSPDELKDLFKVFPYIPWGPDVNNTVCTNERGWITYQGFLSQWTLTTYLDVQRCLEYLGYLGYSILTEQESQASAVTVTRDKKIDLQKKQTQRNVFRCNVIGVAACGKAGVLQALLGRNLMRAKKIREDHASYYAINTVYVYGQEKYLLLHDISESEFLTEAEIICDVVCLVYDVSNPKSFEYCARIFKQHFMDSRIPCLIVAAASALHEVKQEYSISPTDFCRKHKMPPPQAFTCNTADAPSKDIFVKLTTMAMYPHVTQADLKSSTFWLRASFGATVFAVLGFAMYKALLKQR
smiles,measurement,setting,value
O=C(Nc1ccc(Nc2cc(-n3ccnc3)ncn2)cc1)Nc1cccc(F)c1 [Miro1 Reducer],effect on OMM GTPase Mitofusin (Marf),Mitofusin (Marf),did not significantly affect
same,response of mutant Myc-Miro1-7A to compound,Myc-Miro1-7A,failed to respond
